# According to ChEMBL document CHEMBL1147978, “Small molecule inhibitors of a glycoside hydrolase attenuate inducible AmpC-mediated beta-lactam resistance” (J Biol Chem, 2007):
# Assays:
# [1] = biological target: Protein O-GlcNAcase (Homo sapiens) (UniProt O60502); experiment: Inhibition of human family 84 O-GLcNAcase
# [2] = Ratio of human 84 O-GLcNAcase to Vibrio cholerae NagZ
# [3] = Inhibition of bovine family 20 beta-hexosaminidase; set-up: species or system Bos taurus
# [4] = biological target: T1, Beta-hexosaminidase (Vibrio cholerae serotype O1 (strain ATCC 39315 / El Tor Inaba N16961)) (UniProt Q9KU37); experiment: Inhibition of Vibrio cholerae NagZ
# T1 sequence (whole entry): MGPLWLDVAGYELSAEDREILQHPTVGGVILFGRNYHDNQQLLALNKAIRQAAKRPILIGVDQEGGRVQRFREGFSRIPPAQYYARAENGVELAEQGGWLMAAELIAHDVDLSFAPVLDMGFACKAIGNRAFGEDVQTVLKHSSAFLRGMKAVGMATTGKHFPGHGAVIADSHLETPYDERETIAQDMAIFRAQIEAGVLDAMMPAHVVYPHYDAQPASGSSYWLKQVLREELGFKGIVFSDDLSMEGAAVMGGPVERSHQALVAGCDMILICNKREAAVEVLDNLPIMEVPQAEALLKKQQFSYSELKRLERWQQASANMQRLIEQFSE
# [5] = species on record: Homo sapiens; experiment: Inhibition of human family 20 beta-hexosaminidase
# [6] = Selectivity for Vibrio cholerae NagZ over human family 84 O-GLcNAcas
# [7] = Selectivity for Vibrio cholerae NagZ over human family 20 beta-hexosaminidase
# [8] = system: Escherichia coli; experiment: Antimicrobial activity against ampD deficient Escherichia coli transfected with pCF1 by agar diffusion assay; assay type: functional; further: test concentration or dose not given here
# [9] = system: Escherichia coli; experiment: Antimicrobial activity against wild type Escherichia coli by serial dilution method; assay type: functional
# [10] = system: Escherichia coli; experiment: Antimicrobial activity against ampD deficient Escherichia coli in medium containing EtbuPUG by serial dilution method; assay type: functional
# [11] = system: Escherichia coli; experiment: Antimicrobial activity against ampD deficient Escherichia coli transfected with pCF1 in medium containing EtbuPUG by agar diffusion assay; assay type: functional; further: test concentration or dose not given here
# [12] = system: Escherichia coli; experiment: Antimicrobial activity against wild type Escherichia coli transfected with pCF1 in medium containing EtbuPUG by agar diffusion assay; assay type: functional; further: test concentration or dose not given here
# [13] = system: Escherichia coli; experiment: Antimicrobial activity against wild type Escherichia coli in medium containing EtbuPUG by serial dilution method; assay type: functional; further: test concentration or dose not given here
# [14] = system: Escherichia coli; experiment: Antimicrobial activity against ampD deficient Escherichia coli transfected with pCF1 in medium containing EtbuPUG by serial dilution method; assay type: functional
# [15] = system: Escherichia coli; experiment: Antimicrobial activity against ampD deficient Escherichia coli by serial dilution method; assay type: functional
# [16] = system: Escherichia coli; experiment: Antimicrobial activity against ampD deficient Escherichia coli transfected with pCF1 by serial dilution method; assay type: functional
# [17] = system: Escherichia coli; experiment: Antimicrobial activity against wild type EtbuPUG treated Escherichia coli transfected with pCF1 by serial dilution method; assay type: functional; further: test concentration or dose not given here
# [18] = system: Escherichia coli; experiment: Antimicrobial activity against wild type Escherichia coli transfected with pCF1 by agar diffusion assay; assay type: functional; further: test concentration or dose not given here
# [19] = system: Escherichia coli; experiment: Antimicrobial activity against wild type Escherichia coli transfected with pCF1 by serial dilution method
# Chain of Protein O-GlcNAcase (Homo sapiens) (O60502 whole entry, looked up): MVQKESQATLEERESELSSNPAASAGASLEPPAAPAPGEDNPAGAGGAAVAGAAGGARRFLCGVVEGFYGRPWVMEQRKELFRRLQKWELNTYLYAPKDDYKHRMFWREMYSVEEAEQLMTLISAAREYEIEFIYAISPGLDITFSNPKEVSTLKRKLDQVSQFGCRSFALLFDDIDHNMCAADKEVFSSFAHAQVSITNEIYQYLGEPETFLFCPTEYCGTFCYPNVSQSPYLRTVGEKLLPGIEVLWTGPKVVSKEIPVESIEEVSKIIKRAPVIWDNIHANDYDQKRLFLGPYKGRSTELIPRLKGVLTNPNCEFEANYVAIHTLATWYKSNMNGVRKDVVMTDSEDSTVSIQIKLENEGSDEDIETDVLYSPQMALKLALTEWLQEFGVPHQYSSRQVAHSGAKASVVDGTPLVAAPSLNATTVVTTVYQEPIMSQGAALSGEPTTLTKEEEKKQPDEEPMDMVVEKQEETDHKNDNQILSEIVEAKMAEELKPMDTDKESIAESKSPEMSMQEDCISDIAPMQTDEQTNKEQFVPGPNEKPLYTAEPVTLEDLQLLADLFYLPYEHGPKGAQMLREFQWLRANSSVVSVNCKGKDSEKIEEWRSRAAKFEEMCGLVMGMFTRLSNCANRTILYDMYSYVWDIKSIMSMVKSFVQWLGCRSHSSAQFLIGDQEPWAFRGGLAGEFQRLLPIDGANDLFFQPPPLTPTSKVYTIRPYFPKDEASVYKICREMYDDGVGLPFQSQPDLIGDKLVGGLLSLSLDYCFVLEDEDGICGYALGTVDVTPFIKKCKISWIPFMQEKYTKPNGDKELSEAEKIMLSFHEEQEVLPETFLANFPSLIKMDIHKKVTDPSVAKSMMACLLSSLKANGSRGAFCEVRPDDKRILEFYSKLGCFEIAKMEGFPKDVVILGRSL
compound,measurement,setting,value
CC(=O)N[C@H]1c2nc(CC(=O)O)cn2[C@H](CO)[C@@H](O)[C@@H]1O,Ki,[1],0.43 µM
same,Selectivity ratio,[2],0.03
same,IC50,[3],0.0052 µM
same,Kinact,[4],15 µM
CC(=O)N[C@H]1/C(=N/O)O[C@H](CO)[C@@H](O)[C@@H]1O,Ki,[1],6.4 µM
same,Selectivity ratio,[2],29
same,Kinact,[4],0.22 µM
CC(=O)N[C@H]1/C(=N/OC(=O)Nc2ccccc2)O[C@H](CO)[C@@H](O)[C@@H]1O,Ki,[5],0.036 µM
same,Kinact,[4],0.048 µM
CC(C)C(=O)N[C@H]1/C(=N/OC(=O)Nc2ccccc2)O[C@H](CO)[C@@H](O)[C@@H]1O,Ki,[1],9 µM
same,Selectivity ratio,[2],18
same,Ki,[5],20 µM
same,Kinact,[4],0.51 µM
CC(C)CC(=O)N[C@H]1/C(=N/OC(=O)Nc2ccccc2)O[C@H](CO)[C@@H](O)[C@@H]1O,Ki,[1],190 µM
same,Selectivity ratio,[2],13
same,Ki,[5],> 1200 µM
same,Kinact,[4],15 µM
CCC(=O)N[C@H]1/C(=N/OC(=O)Nc2ccccc2)O[C@H](CO)[C@@H](O)[C@@H]1O,Ki,[1],1.2 µM
same,Selectivity ratio,[2],7.5
same,Ki,[5],1.2 µM
same,Kinact,[4],0.16 µM
CCC(CC)C(=O)N[C@H]1/C(=N/OC(=O)Nc2ccccc2)O[C@H](CO)[C@@H](O)[C@@H]1O,Ki,[1],337 µM
same,Selectivity ratio,[2],109
same,Selectivity ratio,[6],100
same,Selectivity ratio,[7],100
same,Ki,[5],> 3000 µM
same,Kinact,[4],3.1 µM
CCCC(=O)N[C@H]1/C(=N/OC(=O)Nc2ccccc2)O[C@H](CO)[C@@H](O)[C@@H]1O,Ki,[1],40 µM
same,Ki,[5],26 µM
same,Kinact,[4],0.26 µM
CCCCC(=O)N[C@H]1/C(=N/OC(=O)Nc2ccccc2)O[C@H](CO)[C@@H](O)[C@@H]1O,Ki,[1],40 µM
same,Selectivity ratio,[2],121
same,Ki,[5],220 µM
same,Kinact,[4],0.33 µM
CCCCCC(=O)N[C@H]1/C(=N/OC(=O)Nc2ccccc2)O[C@H](CO)[C@@H](O)[C@@H]1O,Ki,[1],220 µM
same,Selectivity ratio,[2],33
same,Ki,[5],> 900 µM
same,Kinact,[4],6.5 µM
CO/N=C(\C(=O)N[C@@H]1C(=O)N2C(C(=O)O)=C(COC(C)=O)CS[C@H]12)c1csc(N)n1 [CEFOTAXIME],inhibition zone (IZ),[8],7.1 mm
same,MIC,[9],1 µg/mL
same,MIC,[10],< 2 µg/mL
same,inhibition zone (IZ),[11],9 mm
same,inhibition zone (IZ),[12],12.9 mm
same,MIC,[13],1 µg/mL
same,MIC,[14],64 µg/mL
same,MIC,[15],< 2 µg/mL
same,MIC,[16],128 µg/mL
same,MIC,[17],16 µg/mL
same,inhibition zone (IZ),[18],10.3 mm
same,MIC,[19],64 µg/mL
CO[C@@]1(NC(=O)Cc2cccs2)C(=O)N2C(C(=O)O)=C(COC(N)=O)CS[C@@H]21 [CEFOXITIN],inhibition zone (IZ),[8],8.8 mm
same,MIC,[9],1 µg/mL
same,MIC,[10],2 µg/mL
same,inhibition zone (IZ),[11],10.8 mm
same,inhibition zone (IZ),[12],10.9 mm
same,MIC,[13],1 µg/mL
same,MIC,[14],256 µg/mL
same,MIC,[15],2 µg/mL
same,MIC,[16],512 µg/mL
same,MIC,[17],32 µg/mL
same,inhibition zone (IZ),[18],9.3 mm
same,MIC,[19],64 µg/mL
CC(C)(O/N=C(\C(=O)N[C@@H]1C(=O)N2C(C(=O)[O-])=C(C[n+]3ccccc3)CS[C@H]12)c1csc(N)n1)C(=O)O [CEFTAZIDIME],MIC,[9],1 µg/mL
same,MIC,[10],< 2 µg/mL
same,MIC,[13],1 µg/mL
same,MIC,[14],64 µg/mL
same,MIC,[15],< 2 µg/mL
same,MIC,[16],256 µg/mL
same,MIC,[17],32 µg/mL
same,MIC,[19],64 µg/mL
CO/N=C(\C(=O)N[C@@H]1C(=O)N2C(C(=O)O)=C(CSc3nc(=O)c(O)nn3C)CS[C@H]12)c1csc(N)n1 [CEFTRIAXONE],MIC,[9],< 1 µg/mL
same,MIC,[10],< 2 µg/mL
same,MIC,[13],< 1 µg/mL
same,MIC,[14],32 µg/mL
same,MIC,[15],< 2 µg/mL
same,MIC,[16],128 µg/mL
same,MIC,[17],16 µg/mL
same,MIC,[19],32 µg/mL
